Values belong to the molecule of their own block, whether it stands above or below them.
How the values were obtained:
CFP-T7 [1] = assay: Surfactant resistance of amadoriase in presence of buffering agents; type: biochemical, genus Coniochaeta; conditions: for CFP-T7 Residual Activity (%): 0.01% CTAC, purified CFP-T7; for amadoriase stabilizing effect of the buffer (in words): CFP-T7 in the presence of surfactant
Method: In the above surfactant resistance measuring method, the residual activity of an amadoriase is measured by using various buffers in place of a 30 mM MES/21 mM Tris buffer solution. In this manner, the contribution of the buffer to the amadoriase residual activity can be evaluated. For example, in place of the 30 mM MES/21 mM Tris buffer solution (pH 6.5), e.g., a phosphate buffer solution (pH 7.0), a citrate buffer solution (pH 6.0), a HEPES buffer solution (pH 7.0) or an ACES buffer solution (pH 7.0) can be used. Other conditions and procedure can be the same as in the above surfactant resistance measuring method.
It was studied whether the surfactant resistance of an amadoriase is enhanced or not when a buffering agent other than a 30 mM MES/21 mM Tris buffering agent (pH 6.5) was used. Using CFP-T7 purified as described above as a sample, the final concentration of CTAC was set at 0.01% to evaluate the surfactant resistance of CFP-T7 according to the measurement method for surfactant resistance in Example 1 in the presence of any of various buffering agents, specifically a phosphate buffering agent containing phosphoric acid and potassium phosphate (pH 7.0), a citrate buffering agent containing citric acid and sodium citrate (pH 6.0), an MES buffering agent containing MES and it sodium salt (pH 7.0), an HEPES buffering agent containing HEPES and its sodium salt (pH 7.0), and an ACES buffering agent containing ACES and its sodium salt (pH 7.0), in place of the 30 mM MES/21 mM Tris buffering agent (pH 6.5).

CFP-T7 [2] = assay: Surfactant resistance of amadoriase during addition of each stabilizer (CFP-T7); type: biochemical, genus Coniochaeta; conditions: 500 mM HEPES (pH 7.0), 0.01% CTAC
Method: In the above surfactant resistance measuring method, various stabilizers are added and the residual activity of an amadoriase is measured in order to evaluate the effect of the stabilizers. […] The concentration sufficient to provide a buffer capacity to a solution refers to the concentration at which pH is maintained within a predetermined range (for example pH5 to 10, pH6 to 8) without having pH change due to other reagents added to the solution. A concentration insufficient to provide a buffer capacity to a solution refers to the concentration at which pH changes by addition of other reagents to the solution and pH falls outside a particular range. These concentrations vary depending upon the type and amount of other reagents to be added to a solution; however, a person skilled in the art can appropriately determine the concentration by conventional methods. Other conditions and procedure can be the same as in the above surfactant resistance measuring method.
It was studied whether or not the addition of any of various stabilizers enhanced the surfactant resistance of an amadoriase. Phosphoric acid, a tricarboxylic acid (e.g., citric acid), a dicarboxylic acid (e.g., malic acid, maleic acid, citraconic acid, malonic acid, glutaric acid, or tartaric acid), a monpcarboxylic acid (e.g., acetic acid), MES, MOPS, MOPSO, or ammonium sulfate was used as a stabilizer. As a Comparative Example, CHES was used. To prevent change in pH when adding the stabilizer, 500 mM HEPES (pH 7.0) was used as a buffer solution; CFP-T7 purified as described above was used as a sample; the final concentration of CTAC was set at 0.01%; and any of the stabilizers was further added to evaluate the surfactant resistance of CFP-T7 according to the measurement method for surfactant resistance in Example 1. Using a 500 mM HEPES (pH 7.0) buffering agent and CFP-D2 purified as described above as a sample, any of the stabilizers was further added, and the surfactant resistance of CFP-D2 was evaluated according to the measurement method for surfactant resistance in Example 1 although under more harsh surfactant treatment conditions in which the final concentration of CTAC was set at 0.08% and the treatment temperature at 37° C.

PnFX = assay: Surfactant resistance of PnFX during addition of each stabilizer; type: biochemical, Phaeosphaeria nodorum; conditions: Stabilizer 20 mM; 300 mM HEPES (pH 7.0); 0.04% CTAC
Method: The same stabilizers as those described above were used as stabilizers; 300 mM HEPES (pH 7.0) was used as a buffering agent to prevent a change in pH when the stabilizers was each added; PnFX purified as described above was used as a sample; the final concentration of CTAC was set at 0.04%; and the surfactant resistance of PnFX was evaluated as described above.

[3] = Measurement of fructosyl peptide sample (αFVH) under mixing of CTAC, change in absorbance at 751 nm; type: biochemical; conditions: for Amount of Change in Absorbance at Wavelength of 751 nm under Mixing of Each Concentration of CTAC: as in Example 5, Table 7
Method: The purified enzyme of CFP-T7 and CFP-D7 obtained in Example 3-2 was used to measure a sample as shown below. The activity values of CFP-T7 and CFP-D7 were determined using (reagent 1) adjusted to pH 7.0 with αFVH at a final concentration of 5 mM as a substrate according to the method for measuring amadoriase activity.
(Reagent 4) αFVH (125 mg) was dissolved in ion-exchanged water, the volume of the solution was fixed to 10 ml, and thereby a 30 mM substrate solution was obtained. In addition, the resultant was diluted by 1/714 with a CTAC solution to provide a 42 μM αFVH/0% to 0.2% CTAC solution.
(Reagent 6) (50 μl) was added to a mixed solution of 135 μl of (reagent 5) warmed at 37° C. for 5 minutes in advance and 25 μl of the sample prepared in (11) above to start reaction, and absorbance at a wavelength of 751 nm after reaction at 37° C. for 5 minutes was measured using an automated analyzer, Bio Majesty JCA-BM1650 (from JEOL Ltd.). Absorbance (reagent blank) at a wavelength of 751 nm measured by a similar operation for (reagent 4) prepared using ion-exchanged water in place of the substrate solution was used as a control to calculate the amount of change in absorbance (difference) when each sample was measured, using the following equation. The final concentration of a colorimetric substrate, DA-64, was 0.15 mM; the final concentration of αFVH in the case of the presence of a substrate was 5 μM; and the length (optical path) of the cell used for absorbance measurement was 1 cm. Amount of change in absorbance=ΔAes−Ae0
The amount of change in absorbance when αFVH/0% to 0.2% CTAC were used as samples was calculated.
The purified preparations of amadoriases obtained as described above were used as samples to measure αFVH under the mixing of CTAC using PnFX and NvFX as in Example 5.

[4] = Buffer Solution 100 mM, pH 7.0 (citrate pH 6.0)

Molecule: NC(=O)CNCCS(=O)(=O)O [ACES, N-(2-acetamido)-2-aminoethanesulfonic acid]
CFP-T7 Residual Activity (%) (CFP-T7 [1]; Buffer Solution 20 mM, pH 7.0 (citrate pH 6.0)): 15.6%
CFP-T7 Residual Activity (%) (CFP-T7 [1]; [4]): 16.4%
CFP-T7 Residual Activity (%) (CFP-T7 [1]; Buffer Solution 200 mM, pH 7.0): 22.1%

Molecule: CC(=O)O [Acetate, acetic acid]
CFP-T7 Residual Activity (%) (CFP-T7 [2]; Stabilizer 10 mM, Table 9-1): 8.9%
CFP-T7 Residual Activity (%) (CFP-T7 [2]; Stabilizer 20 mM, Table 9-1): 20.7%
CFP-T7 Residual Activity (%) (CFP-T7 [2]; Stabilizer 50 mM, Table 9-1): 52.4%
PnFX Residual Activity (%) (PnFX): 42.6%

CFP-T7 Residual Activity (%) (CFP-T7 [2]; Stabilizer 2 mM, Table 9-2): 10.8%
CFP-T7 Residual Activity (%) (CFP-T7 [2]; Stabilizer 10 mM, Table 9-2): 77.3%
Molecule: O=C(O)CC(=O)O [Malonate, malonic acid]

CFP-T7 Residual Activity (%) (CFP-T7 [2]; Stabilizer 2 mM, Table 9-2): 15.5%
CFP-T7 Residual Activity (%) (CFP-T7 [2]; Stabilizer 10 mM, Table 9-2): 81.5%
Molecule: O=C(O)/C=C\C(=O)O [Maleate, maleic acid]

Molecule: O=C(O)CCCC(=O)O [Glutarate, glutaric acid]
CFP-T7 Residual Activity (%) (CFP-T7 [2]; Stabilizer 2 mM, Table 9-2): 4.5%
CFP-T7 Residual Activity (%) (CFP-T7 [2]; Stabilizer 10 mM, Table 9-2): 55.9%

CFP-T7 Residual Activity (%) (CFP-T7 [2]; Stabilizer 10 mM, Table 9-2): 9.0%
CFP-T7 Residual Activity (%) (CFP-T7 [2]; Stabilizer 20 mM, Table 9-2): 23.5%
Molecule: O=S(=O)(O)CC(O)CN1CCOCC1 (centres unmarked) [MOPSO, 2-hydroxy-3-morpholino-propanesulfonic acid]

CFP-T7 Residual Activity (%) (CFP-T7 [2]; Stabilizer 2 mM, Table 9-2): 18.5%
CFP-T7 Residual Activity (%) (CFP-T7 [2]; Stabilizer 10 mM, Table 9-2): 89.1%
Molecule: C/C(=C/C(=O)O)C(=O)O [Citraconate, citraconic acid]

CFP-T7 Residual Activity (%) (CFP-T7 [2]; Stabilizer 2 mM, Table 9-2): 5.3%
CFP-T7 Residual Activity (%) (CFP-T7 [2]; Stabilizer 10 mM, Table 9-2): 70.0%
Molecule: O=C(O)C(O)C(O)C(=O)O (centres unmarked) [Tartrate, tartaric acid]

Molecule: O=S(=O)(O)CCN1CCN(CCO)CC1 [HEPES, 4-2-hydroxyethyl-1-piperazine-ethanesulfonic acid, reference compound]
CFP-T7 Residual Activity (%) (CFP-T7 [1]; Buffer Solution 50 mM, pH 7.0 (citrate pH 6.0)): 13.2%
CFP-T7 Residual Activity (%) (CFP-T7 [1]; [4]): 13.2%
CFP-T7 Residual Activity (%) (CFP-T7 [1]; Buffer Solution 150 mM, pH 7.0): 12.2%
CFP-T7 Residual Activity (%) (CFP-T7 [1]; Buffer Solution 300 mM, pH 7.0): 9.6%
amadoriase stabilizing effect of the buffer (in words) (CFP-T7 [1]): does not have an amadoriase stabilizing effect
amadoriase stabilizing effect of the buffer (in words) (CFP-T7 [1]; listed as HEPES buffering agent): not observed

stabilizing action of the stabilizer (in words) (CFP-T7 [2]; CFP-T7): did not have any stabilizing action
CFP-T7 Residual Activity (%) (CFP-T7 [2]; Stabilizer 20 mM, Table 9-2): 3.0%
Molecule: O=S(=O)(O)CCNC1CCCCC1 [CHES, N-cyclohexyl-2-aminoethane sulfonic acid, reference compound]

B1: NvFX: ketoamine oxidase derived from Neocosmospora vasinfecta, SEQ ID NO: 38 (protein, listed as Neocosmospora vasinfecta)
chain: MTTPRKETTVLIIGGGGTIGSSTALHLLRAGYTPSNITVLDTYPIPSAQSAGNDLNKIMGIRLRNKVDLQLSLEARDMWRNDALFRPFFHNTGRLDCESSAEGVEGLRREYQKLVEAGVGLEETHEWLDSEEAILEKAPLLQREEIEGWKAIWSEEGGWLAAAKAINAIGEELQRQGVRFGFGGAGSFKRPLFADDGTTCIGVETVDGTQYHADKVVLAAGAWSPALVDLEEQCCSKAWVYAHMQLTPEEAAVYKGCPVVYHGDVGFFFEPNENGVIKVCDEFPGFTRFKQHQPYGAPAPKPVSVPRSHAKHPTDTYPDASEESIKRAVSTFLPRFKDKPLFNRALCWCTDTADSALLICEHPRWKNFILATGDSGHSFKLLPIIGKHVVELVEGRLADDLAEAWRWRPGQGDARKSIRAAPAKDLADMPGWKHDQDSESR
measurement of αFVH under the mixing of CTAC (in words) [3]: αFVH could not accurately be measured
Amount of Change in Absorbance at Wavelength of 751 nm under Mixing of Each Concentration of CTAC ([3]; Mixing of CTAC 0%): 0.118
Amount of Change in Absorbance at Wavelength of 751 nm under Mixing of Each Concentration of CTAC ([3]; Mixing of CTAC 0.01%): 0.013
Amount of Change in Absorbance at Wavelength of 751 nm under Mixing of Each Concentration of CTAC ([3]; Mixing of CTAC 0.02%): 0.013
Amount of Change in Absorbance at Wavelength of 751 nm under Mixing of Each Concentration of CTAC ([3]; Mixing of CTAC 0.04%): 0.007
Amount of Change in Absorbance at Wavelength of 751 nm under Mixing of Each Concentration of CTAC ([3]; Mixing of CTAC 0.06%): 0.004
Amount of Change in Absorbance at Wavelength of 751 nm under Mixing of Each Concentration of CTAC ([3]; Mixing of CTAC 0.1%): 0.003
Amount of Change in Absorbance at Wavelength of 751 nm under Mixing of Each Concentration of CTAC ([3]; Mixing of CTAC 0.2%): 0.001

Reference: patent publication US11549134B2, “Modified amadoriase and method for producing the same, agent for improving surfactant resistance of amadoriase and composition for measuring HbA1c using the same” (Kikkoman Corporation, priority 2013, dated 2023)
